Results published in patent publication US4321386A, “Quaternary piperidinium halides” (Mead Johnson & Company, priority 1981, dated 1982).
Like-named read-outs stand apart in the source and are kept apart here.

What was measured:
[1] = Oral toxicity testing in mice (ALD50, ATD50); conditions: mouse, in vivo
Method: ^(1) Various oral doses of from 5 mg/kg to 2000 mg/kg are given to 2
mice each; ALD50 is the approximate lethal dose for half the animals
ATD50 is the approximate lowest dose where signs of physiologic or […]

[2] = test system: Ventricular arrhythmia produced in mice by chloroform inhalation; experiment: Chloroform induced arrhythmia test in the mouse; type: in vivo; conditions: inhaled or nasal, 10 animals per dose, read-out: Antiarrhythmic Activity Mouse ED50
Text: ^(2) Ventricular arrhythmia produced in mice by chloroform inhalation
10 animals per dose (Lawson, J. W., J. Pharmacol. Exp. Therap., 160, 22

[3] = mice, oral, approximate lethal dose for half the animals, read-out: Toxicity ALD50
[4] = mice, oral, approximate lowest dose where signs of physiologic or neurologic deficit appear, read-out: Toxicity ATD50

SMILES | LD50 [1, 3] | TD50 [1, 4] | ED50 [2] | LD50 ([1]; po) | TD50 ([1]; po)
COc1ccc(C(=O)Nc2ccccc2CCC2CCCCN2C)cc1 (stereo not drawn) [I, reference compound] | 50 to 100 mg/kg | 5 to 10 mg/kg | 7 to 15 mg/kg |  | 
COc1ccc(C(=O)Nc2ccccc2CCC2CCCC[N+]2(C)Cc2ccccc2)cc1 (stereo not drawn) [IIb, 2-[2--[2-[(4-Methoxybenzoyl)amino]phenyl]ethyl]-1-methyl-1-(phenylmethyl)piperidinium Bromide Hydrate] |  |  | 19 mg/kg | > 1000 mg/kg | 125 to 250 mg/kg
COc1ccc(C(=O)Nc2ccccc2CCC2CCCC[N+]2(C)C)cc1.[I-] (stereo not drawn) [IIa, 2-[2-[2-[(4-Methoxybenzoyl)amino]phenyl]ethyl]-1,1-dimethylpiperidinium Iodide] | > 2000 mg/kg | 250 mg/kg | 30.5 mg/kg |  | 
